Molecular target: human plasma kallikrein (Homo sapiens (Human), UniProt P03952)
Sequence (P03952 391-638 limits assumed): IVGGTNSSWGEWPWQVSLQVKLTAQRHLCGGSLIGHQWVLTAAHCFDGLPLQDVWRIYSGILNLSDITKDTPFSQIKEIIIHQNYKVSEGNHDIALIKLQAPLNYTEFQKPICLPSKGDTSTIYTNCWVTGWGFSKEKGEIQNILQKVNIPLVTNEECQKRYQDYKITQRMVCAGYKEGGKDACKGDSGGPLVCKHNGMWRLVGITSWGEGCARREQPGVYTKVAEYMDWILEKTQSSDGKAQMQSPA
Sequence (P03952 20-390 partner limits assumed): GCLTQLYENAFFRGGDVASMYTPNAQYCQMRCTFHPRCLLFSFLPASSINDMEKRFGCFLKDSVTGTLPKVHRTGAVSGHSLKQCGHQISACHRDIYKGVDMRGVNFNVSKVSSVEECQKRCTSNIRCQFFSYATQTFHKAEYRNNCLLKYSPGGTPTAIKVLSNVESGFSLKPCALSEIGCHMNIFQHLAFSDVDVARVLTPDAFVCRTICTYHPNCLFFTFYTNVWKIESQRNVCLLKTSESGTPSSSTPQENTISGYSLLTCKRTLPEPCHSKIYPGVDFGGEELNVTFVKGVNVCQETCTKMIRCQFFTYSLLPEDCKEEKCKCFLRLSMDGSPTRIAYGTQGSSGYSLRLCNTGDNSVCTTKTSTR
Assay: In vitro enzyme inhibition of human plasma kallikrein (Pro-Phe-Arg-AMC cleavage)
Assay type: biochemical
Conditions: Pro-Phe-Arg-AMC substrate, 37° C., read-out: hPK IC50
Procedure: The ability of the compounds disclosed herein to inhibit human plasma kallikrein activity was quantified according to the procedures below.
A 10 mM solution of the test compound was made in DMSO. […] A control tube containing only DMSO is included. 16 μL of each compound test solution was combined with 384 μL of assay buffer (50 mM Tris-HCl pH 7.5, 150 mM NaCl, 0.01% Triton X-100) to yield a “4× test compound buffer stock”.
These solutions are hereby referred to as 4×hPK and 2×PFR-AMC, respectively.
50 μL was removed from this mixture and placed into duplicate wells on a Microfluor 1Black U-bottom microtiter plate (Thermo Scientific). This plate was incubated for 5 minutes at 37° C. To each well, 50 µL of pre-warmed 2×PFR-AMC was added to start the enzymatic reaction. Cleavage of PFR-AMC was monitored in a Biotek Synergy H4 reader set at 37° C. Readings are taken every 43 seconds for 1 hour. […] The IC50 is calculated using the Gen5 (Biotek Instruments).
The ability of the compounds in Table 3 to inhibit human plasma kallikrein activity was determined.
With Cc1cc(N)nc(C)c1CNC(=O)c1cc(Cc2ccc3ncc(Cl)cc3c2)nc(C(=O)O)c1 [Example 209, 4-((6-amino-2,4-dimethylpyridin-3-yl)methylcarbamoyl)-6-((3-chloroquinolin-6-yl)methyl)picolinic Acid] the IC50 was less than 100 nM. With “N-(3-chloro-6-fluoro-1H-indol-5-ylmethyl)-2-(2-cyano-quinolin-6-ylmethyl)-isonicotinamide [Example 130]” the IC50 was less than 100 nM.

Test system: not listed separately
Assay: Contact Assay (percentage inhibition from fluorescence intensity)
Assay type: biochemical
Conditions: not given
Procedure: The percentage inhibition was calculated using the following equation:
[formula] where, Mean(BG) is the average value of the fluorescence intensity of the background wells and Mean(PC) is the average value of the fluorescence intensity of the positive control wells.
Table 4 provides the EC50 values of various compounds disclosed herein.
Molecule Cc1cc(N)nc(C)c1CNC(=O)c1cc(Cc2ccc3ncc(Cl)cc3c2)nc(C(=O)O)c1 [Example 209, 4-((6-amino-2,4-dimethylpyridin-3-yl)methylcarbamoyl)-6-((3-chloroquinolin-6-yl)methyl)picolinic Acid] has an EC50 of 100 to 1000 nM. In the case of Cc1cc(N)nc(C)c1CNC(=O)c1ccnc(C(C)(O)c2ccc3ncc(Cl)cc3c2)c1 (stereo not drawn) [Example 277, N-((6-amino-2,4-dimethylpyridin-3-yl)methyl)-2-(1-(3-chloroquinolin-6-yl)-1-hydroxyethyl)isonicotinamide], the EC50 is reported as 100 to 1000 nM. Work on Cc1nc(N)ccc1CNC(=O)c1ccnc(Cc2ccc3ncc(CC(F)F)cc3c2)c1 [Example 279, N-((6-amino-2-methylpyridin-3-yl)methyl)-2-((3-(2,2-difluoroethyl)quinolin-6-yl)methyl)isonicotinamide] yielded an EC50 of 100 to 1000 nM. For CCc1cnc2ccc(Cc3cc(C(=O)NCc4ccc5c(N)nccc5c4)ccn3)cc2c1 [Example 283, N-((1-aminoisoquinolin-6-yl)methyl)-2-((3-ethylquinolin-6-yl)methyl)isonicotinamide], the EC50 was no more than 100 nM. Work on CCc1cnc2ccc(Cc3cc(C(=O)NCc4c(C)cc(N)nc4C)ccn3)cc2c1 [Example 286, N-((6-amino-2,4-dimethylpyridin-3-yl)methyl)-2-((3-ethylquinolin-6-yl)methyl)isonicotinamide] yielded an EC50 of no more than 100 nM. With Cc1cnc2c(S(N)(=O)=O)cc(Cc3cc(C(=O)NCc4cc5c(Cl)c[nH]c5cc4F)ccn3)cc2c1 [Example 287, N-((3-chloro-6-fluoro-1H-indol-5-yl)methyl)-2-((3-methyl-8-sulfamoylquinolin-6-yl)methyl)isonicotinamide] the EC50 was no more than 100 nM. Work on Cc1cnc2c(S(N)(=O)=O)cc(Cc3cc(C(=O)NCc4n[nH]c5ccc(Cl)cc45)ccn3)cc2c1 [Example 288, N-((5-chloro-1H-indazol-3-yl)methyl)-2-((3-methyl-8-sulfamoylquinolin-6-yl)methyl)isonicotinamide] yielded an EC50 of 100 to 1000 nM. Molecule Cc1cnc2c(S(N)(=O)=O)cc(Cc3cc(C(=O)NCc4ccc5c(N)nccc5c4)ccn3)cc2c1 [Example 289, N-((1-aminoisoquinolin-6-yl)methyl)-2-((3-methyl-8-sulfamoylquinolin-6-yl)methyl)isonicotinamide] has an EC50 of no more than 100 nM. In the case of Cc1cnc2c(S(N)(=O)=O)cc(Cc3cc(C(=O)NCc4ccc5[nH]cc(Cl)c5c4F)ccn3)cc2c1 [Example 290, N-((3-chloro-4-fluoro-1H-indol-5-yl)methyl)-2-((3-methyl-8-sulfamoylquinolin-6-yl)methyl)isonicotinamide], the EC50 is reported as 100 to 1000 nM. In the case of Cc1cnc2c(S(N)(=O)=O)cc(Cc3cc(C(=O)NCc4cnc5[nH]cc(Cl)c5c4)ccn3)cc2c1 [Example 291, N-((3-chloro-1H-pyrrolo[2,3-b]pyridin-5-yl)methyl)-2-((3-methyl-8-sulfamoylquinolin-6-yl)methyl)isonicotinamide], the EC50 is reported as no more than 100 nM.

Reference: US10308637B2 (LifeSci Pharmaceuticals, Inc., priority 2015, dated 2019)
